Series [1] in a line: Ratio of drug uptake in brain to plasma of wild type FVB mouse. It is filed as ADME. Conditions: brain and plasma, read-out: BPR.
The nature of series [2]: Oral bioavailability in wild type FVB mouse. It is filed as ADME, organism-based. Conditions: in vivo.

On to `Cc1noc(C2CC3Cc4[nH]ncc4C(C2)N3S(=O)(=O)c2ccc(Cl)cc2)n1` (single isomer, unassigned), for which the Kp in series [1] came out at 0.08.

As for `O=S(=O)(c1ccc(C(F)(F)F)nc1)N1C2Cc3[nH]ncc3C1CC(c1ccc(F)cc1)C2` (single isomer, unassigned), in series [1], the Kp came to 0.3.

For the molecule `O=S(=O)(c1ccc(Cl)cc1)N1C2CCCC1c1cn[nH]c1C2` (single isomer, unassigned), the bioavailability in series [2] came out at 2%.

The term bioavailability denotes dose-corrected exposure relative to a reference, in per cent. Higher therefore signals much systemic uptake.

Source of the values: ChEMBL document CHEMBL1833811, “Design, synthesis and structure-activity relationship of novel [3.3.1] bicyclic sulfonamide-pyrazoles as potent γ-secretase inhibitors” (Bioorg Med Chem Lett, 2011).
